Calls of active or inactive are those of the source. The calls are words filed in the database; no cut-off is given here.
Assays:
[1] = tested on: T47D; experiment: Induction of apoptosis in human T47D cells assessed as early apoptotic cells at 10 uM after 48 hrs by Annexin V-FITC/propidium iodide staining based flow cytometry (reference value: 1.49 %); format: functional
[2] = tested on: T47D; experiment: (§1) Inhibition of colony formation in human T47D cells after 7 days by crystal violet staining based assay; format: functional, cell-based
[3] = as §1; format: functional, cell-based; details: 168 h
[4] = Antitumor activity against human T47D cells xenografted in nude mouse assessed as tumor weight at 40 mg/kg/day, ip administered daily for 18 days measured every 3 days during compound dosing (reference value: 882 +/- 149 mg); format: functional
[5] = Antiproliferative activity against human T47D cells after 96 hrs by SRB assay; format: functional, cell-based
[6] = tested on: T47D; experiment: (§2) Antimigratory activity in human T47D cells assessed as inhibition of cell migration after 12 hrs by crystal violet staining based transwell migration assay; format: functional
[7] = as §2; format: functional
[8] = Potency index, ratio of podophyllotoxin IC50 to compound IC50 for human T47D cells; format: functional
[9] = tested on: Mus musculus; experiment: Toxicity in nude mouse xenografted with human T47D cells assessed as body weight loss at 20 to 40 mg/kg/day, ip administered daily for 18 days measured every 3 days during compound dosing; format: organism-based; details: in vivo
[10] = Antiproliferative activity against human DU145 cells after 96 hrs by SRB assay; format: functional, cell-based; details: DU-145, 96 h
[11] = Antiproliferative activity against human HL60 cells after 96 hrs by SRB assay; format: functional, cell-based; details: HL-60, 96 h
[12] = tested on: T47D; experiment: Induction of apoptosis in human T47D cells assessed as early apoptotic cells at 5 uM after 48 hrs by Annexin V-FITC/propidium iodide staining based flow cytometry (reference value: 1.49 %); format: functional
[13] = Selectivity index, ratio of IC50 for HAF cells to IC50 for human MDA-MB-231 cells; format: functional
[14] = tested on: HCT-116; experiment: Selectivity index, ratio of IC50 for HAF cells to IC50 for human HCT116 cells; format: functional
[15] = tested on: T47D; experiment: Induction of apoptosis in human T47D cells assessed as late apoptotic cells at 5 uM after 48 hrs by Annexin V-FITC/propidium iodide staining based flow cytometry (reference value: 2.72 %); format: functional
[16] = tested on: T47D; experiment: Antimigratory activity in human T47D cells assessed as inhibition of cell migration at 20 uM after 12 hrs by crystal violet staining based transwell migration assay; format: functional
[17] = tested on: Mus musculus; experiment: Toxicity in nude mouse xenografted with human T47D cells assessed as incidence of impaired posture or movement at 20 to 40 mg/kg/day, ip administered daily for 18 days measured every 3 days during compound dosing; format: organism-based; details: in vivo
[18] = tested on: T47D; experiment: Induction of apoptosis in human T47D cells assessed as late apoptotic cells at 20 uM after 48 hrs by Annexin V-FITC/propidium iodide staining based flow cytometry (reference value: 2.72 %); format: functional
[19] = tested on: DU-145; experiment: Selectivity index, ratio of IC50 for HAF cells to IC50 for human DU145 cells; format: functional
[20] = tested on: Mus musculus; experiment: Toxicity in nude mouse xenografted with human T47D cells assessed as organ damage at 20 to 40 mg/kg/day, ip administered daily for 18 days; format: organism-based; details: in vivo, 432 h
[21] = Antiproliferative activity against human HCT116 cells after 96 hrs by SRB assay; format: functional, cell-based; details: HCT-116, 96 h
[22] = tested on: Mus musculus; experiment: Acute toxicity in nude mouse xenografted with human T47D cells assessed as effect on the survival rate at 20 to 40 mg/kg/day, ip administered daily for 18 days measured on day 18 post last dose; format: organism-based; details: in vivo, 432 h
[23] = tested on: Mus musculus; experiment: Toxicity in nude mouse xenografted with human T47D cells assessed as diarrhoea at 20 to 40 mg/kg/day, ip administered daily for 18 days; format: organism-based; details: in vivo, 432 h
[24] = tested on: T47D; experiment: Selectivity index, ratio of IC50 for HAF cells to IC50 for human T47D cells; format: functional
[25] = Antiproliferative activity against human HT-29 cells after 96 hrs by SRB assay; format: functional, cell-based; details: HT-29, 96 h
[26] = tested on: Mus musculus; experiment: Toxicity in nude mouse xenografted with human T47D cells assessed as effect on food and water withdrawal at 20 to 40 mg/kg/day, ip administered daily for 18 days measured every 3 days during compound dosing; format: organism-based; details: in vivo
[27] = tested on: T47D; experiment: Induction of apoptosis in human T47D cells assessed as late apoptotic cells at 10 uM after 48 hrs by Annexin V-FITC/propidium iodide staining based flow cytometry (reference value: 2.72 %); format: functional
[28] = tested on: MCF7; experiment: Selectivity index, ratio of IC50 for HAF cells to IC50 for human MCF7 cells; format: functional
[29] = Antitumor activity against human T47D cells xenografted in nude mouse assessed as tumor weight at 20 mg/kg/day, ip administered daily for 18 days measured every 3 days during compound dosing (reference value: 882 +/- 149 mg); format: functional
[30] = tested on: T47D; experiment: Induction of apoptosis in human T47D cells assessed as early apoptotic cells at 20 uM after 48 hrs by Annexin V-FITC/propidium iodide staining based flow cytometry (reference value: 1.49 %); format: functional
[31] = Antiproliferative activity against human MDA-MB-231 cells after 96 hrs by SRB assay; format: functional, cell-based; details: MDA-MB-231, 96 h
[32] = tested on: PC-3; experiment: Selectivity index, ratio of IC50 for HAF cells to IC50 for human PC3 cells; format: functional
[33] = Selectivity index, ratio of IC50 for HAF cells to IC50 for human HT-29 cells; format: functional
[34] = Antiproliferative activity against human PC3 cells after 96 hrs by SRB assay; format: functional, cell-based; details: PC-3, 96 h
[35] = tested on: HL-60; experiment: Selectivity index, ratio of IC50 for HAF cells to IC50 for human HL60 cells; format: functional
[36] = Antitumor activity against human T47D cells xenografted in nude mouse assessed as tumor volume at 40 mg/kg/day, ip administered daily for 18 days measured every 3 days during compound dosing (reference value: 1220 +/- 127 mm3); format: functional
[37] = Antiproliferative activity against HAF cells after 96 hrs by SRB assay; format: cell-based; details: Homo sapiens
[38] = Antiproliferative activity against human MCF7 cells after 96 hrs by SRB assay; format: functional, cell-based; details: MCF7, 96 h
[39] = Antitumor activity against human T47D cells xenografted in nude mouse assessed as tumor volume at 20 mg/kg/day, ip administered daily for 18 days measured every 3 days during compound dosing (reference value: 1220 +/- 127 mm3); format: functional

COc1cc2c(cc1C(=O)Nc1ccc(N(C)C)cc1)CC[C@H]1C(C)(C)[C@@H](O)CC[C@]21C
Activity [1]: 16.86% | Activity [2]: Dose-dependent effect | EC50 [3]: 2.56 nM | Activity [4]: 320 mg | IC50 [5]: 10 nM | Activity [6]: Dose-dependent effect | EC50 [7]: 6420 nM | Ratio IC50 [8]: 25 | Activity [9]: Non-Toxic | IC50 [10]: 280 nM | IC50 [11]: 40 nM | Activity [12]: 4.31% | Ratio IC50 [13]: 13.8 | Ratio IC50 [14]: 13.8 | Activity [15]: 0.49% | Activity [16]: Active | Activity [17]: Non-Toxic | Activity [18]: 1.29% | Ratio IC50 [19]: 13.8 | Activity [20]: Non-Toxic | IC50 [21]: 570 nM | Activity [22]: Non-Toxic | Activity [23]: Non-Toxic | Ratio IC50 [24]: 13.8 | IC50 [25]: 590 nM | Activity [26]: Non-Toxic | Activity [27]: 1.09% | Ratio IC50 [28]: 13.8 | Activity [29]: 550 mg | Activity [30]: 24.58% | IC50 [31]: 320 nM | Ratio IC50 [32]: 13.8 | Ratio IC50 [33]: 13.8 | IC50 [34]: 540 nM | Ratio IC50 [35]: 13.8 | Activity [36]: 401 mm3 | IC50 [37]: 4540 nM | IC50 [38]: 280 nM | Activity [39]: 654 mm3
